# Measured values taken from patent US20060069132A1, “Azolecarboxamide herbicides” (priority 2004, published 2006).
# Columns and labels:
# kochia = assay: Test C pre-/postemergence herbicide test; format: in vivo, Kochia scoparia; settings: for Kochia plant response rating: 500 g ai/ha
# In short: (§1)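 Seeds were planted and sprayed preemergence with test chemicals in a non-phytotoxic solvent mixture containing surfactant; postemergence treatments went onto plants 2 to 18 cm tall (1- to 4-leaf stage). After 12 to 14 days in a greenhouse, injury was rated visually against untreated controls on a 0–100 scale.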
# barnyardgrass [1] = assay: Test C flooded paddy test; format: in vivo, Echinochloa crus-galli
# In short: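 Postemergence sprays were applied to plants 2 to 18 cm tall (1- to 4-leaf stage); in the flooded paddy test, barnyardgrass was grown to the 2-leaf stage. After 12 to 14 days in a greenhouse, injury was visually rated against untreated controls on a 0–100 scale (100 = complete control).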
# lambsquarters = assay: Test C pre-/postemergence herbicide test; format: in vivo, Chenopodium album; settings: for Lambsquarters plant response rating: 500 g ai/ha
# In short: as §1
# [2] = system: common (oilseed) sunflower; assay: Test C pre-/postemergence herbicide test; format: in vivo, Helianthus annuus
# In short: as §1
# barnyardgrass [3] = assay: Test A pre-/postemergence herbicide test; format: in vivo, Echinochloa crus-galli
# In short: (§2)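 Seeds sown in sandy loam received a preemergence directed soil spray of compound in non-phytotoxic solvent with surfactant; postemergence plants (2–10 cm, one- to two-leaf stage) were sprayed to runoff at the same time. After ~10 days in greenhouse, injury was rated visually versus untreated controls (0 = no effect, 100 = complete control).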
# giant foxtail [4] = assay: Test C pre-/postemergence herbicide test; format: in vivo, Setaria faberi; settings: for Foxtail, Giant plant response rating: 500 g ai/ha
# In short: as §1
# giant foxtail [5] = assay: Test A pre-/postemergence herbicide test; format: in vivo, Setaria faberi
# In short: as §2
# ducksalad = assay: Test C flooded paddy test; format: in vivo, Heteranthera limosa
# soybean = assay: Test C pre-/postemergence herbicide test; format: in vivo, Glycine max; settings: for Soybean plant response rating: 500 g ai/ha
# In short: as §1
# bermudagrass = assay: Test C pre-/postemergence herbicide test; format: in vivo, Cynodon dactylon; settings: for Bermudagrass plant response rating: 500 g ai/ha
# In short: as §1
# large crabgrass [6] = assay: Test A pre-/postemergence herbicide test; format: in vivo, Digitaria sanguinalis
# In short: as §2
# large crabgrass [7] = assay: Test C pre-/postemergence herbicide test; format: in vivo, Digitaria sanguinalis; settings: for Crabgrass, Large plant response rating: 500 g ai/ha
# In short: as §1
# rice = assay: Test C flooded paddy test; format: in vivo, Oryza sativa
# In short: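 Injury scored visually against controls on a 0 (no effect) to 100 (complete control) scale, 12 to 14 days after treatment in greenhouse. Flooded paddy plants treated at 2-leaf stage; postemergence plants at 1- to 4-leaf stage, 2 to 18 cm tall.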
# [8] = 125 g ai/ha, scale 0 (no effect) to 100 (complete control), visual, 12 to 14 days, preemergence
# [9] = Postemergence, 250 g ai/ha, scale 0 to 100, 0 no effect, 100 complete control
# [10] = Preemergence, scale 0 to 100, 0 no effect, 100 complete control
# [11] = postemergence, 125 g ai/ha, scale 0 to 100
# [12] = postemergence, 62 g ai/ha, scale 0 to 100
# [13] = 62 g ai/ha, scale 0 to 100 (0 no effect, 100 complete control)
# [14] = 125 g ai/ha, scale of 0 to 100, 0 is no effect, 100 is complete control
# [15] = 250 g ai/ha, scale of 0 to 100, 0 is no effect, 100 is complete control
# [16] = 500 g ai/ha, visual rating after 12 to 14 days, scale 0 to 100 (0 no effect, 100 complete control)
# [17] = Postemergence, 500 g ai/ha, 0 to 100 scale, 0 no effect, 100 complete control
# [18] = Postemergence, 2000 g ai/ha, 0 to 100 scale, 0 no effect, 100 complete control
# [19] = Preemergence, 500 g ai/ha, visual rating, 0 to 100 scale (0 no effect, 100 complete control)
# [20] = Preemergence, 2000 g ai/ha, visual rating, 0 to 100 scale (0 no effect, 100 complete control)
# [21] = 250 g ai/ha, scale 0 to 100 (0 no effect, 100 complete control), visual, 12 to 14 days, preemergence
compound,measurement,setting,value
CC(=NO)c1cccc(NC(=O)c2cc(C(C)(C)C)nn2CCF)c1 [Compound 115],"Plant response rating (0 = no effect, 100 = complete control), Kochia","kochia; 62 g ai/ha, preemergence",100
same,"Plant response rating, Kochia",kochia; [8],100
same,Kochia plant response rating,"kochia; Postemergence, scale 0 to 100",90
same,"Plant response rating, Kochia",kochia; [9],90
same,Kochia plant response rating,kochia; [10],100
same,"Plant response rating, Kochia",kochia; [11],90
same,"Plant response rating, Kochia",kochia; [12],80
same,Barnyardgrass plant response rating,barnyardgrass [1]; [13],30
same,Barnyardgrass plant response rating,barnyardgrass [1]; [14],45
same,Barnyardgrass plant response rating,barnyardgrass [1]; [15],65
same,"Plant response rating, Barnyardgrass",barnyardgrass [1]; [16],75
same,"Plant response rating (0 = no effect, 100 = complete control), Lambsquarters","lambsquarters; 62 g ai/ha, preemergence",100
same,"Plant response rating, Lambsquarters",lambsquarters; [8],100
same,Lambsquarters plant response rating,"lambsquarters; Postemergence, scale 0 to 100",100
same,"Plant response rating, Lambsquarters",lambsquarters; [9],100
same,Lambsquarters plant response rating,lambsquarters; [10],100
same,"Plant response rating, Lambsquarters",lambsquarters; [11],100
same,"Plant response rating, Lambsquarters",lambsquarters; [12],100
same,"Plant response rating (0 = no effect, 100 = complete control), Sunflower","[2]; 62 g ai/ha, preemergence",0
same,Sunflower plant response rating,"[2]; Preemergence, 500 g ai/ha, scale 0 to 100, 0 no effect, 100 complete control",10
same,Barnyardgrass plant response rating,barnyardgrass [3]; [17],70
same,"Plant response rating, Barnyardgrass",barnyardgrass [3]; [18],80
same,Barnyardgrass plant response rating,barnyardgrass [3]; [19],70
same,Barnyardgrass plant response rating,barnyardgrass [3]; [20],85
same,"Plant response rating (0 = no effect, 100 = complete control), Foxtail, Giant","giant foxtail [4]; 62 g ai/ha, preemergence",40
same,"Plant response rating, Foxtail, Giant",giant foxtail [4]; [8],90
same,"Plant response rating, Foxtail, Giant",giant foxtail [4]; [21],100
same,"Foxtail, Giant plant response rating","giant foxtail [4]; Postemergence, scale 0 to 100",80
same,"Plant response rating, Foxtail, Giant",giant foxtail [4]; [9],60
same,"Foxtail, Giant plant response rating",giant foxtail [4]; [10],100
same,"Plant response rating, Foxtail, Giant",giant foxtail [4]; [11],40
same,"Plant response rating, Foxtail, Giant",giant foxtail [4]; [12],40
same,"Foxtail, Giant plant response rating",giant foxtail [5]; [17],60
same,"Plant response rating, Foxtail, Giant",giant foxtail [5]; [18],80
same,"Foxtail, Giant plant response rating",giant foxtail [5]; [19],50
same,"Foxtail, Giant plant response rating",giant foxtail [5]; [20],80
same,Ducksalad plant response rating,ducksalad; [13],30
same,Ducksalad plant response rating,ducksalad; [14],75
same,Ducksalad plant response rating,ducksalad; [15],85
same,"Plant response rating, Ducksalad",ducksalad; [16],90
same,"Plant response rating (0 = no effect, 100 = complete control), Soybean","soybean; 62 g ai/ha, preemergence",0
same,"Plant response rating, Soybean",soybean; [8],0
same,Soybean plant response rating,"soybean; Postemergence, scale 0 to 100",90
same,"Plant response rating, Soybean",soybean; [9],80
same,Soybean plant response rating,soybean; [10],0
same,"Plant response rating, Soybean",soybean; [11],70
same,"Plant response rating, Soybean",soybean; [12],60
same,"Plant response rating (0 = no effect, 100 = complete control), Bermudagrass","bermudagrass; 62 g ai/ha, preemergence",100
same,"Plant response rating, Bermudagrass",bermudagrass; [8],100
same,"Plant response rating, Bermudagrass",bermudagrass; [21],100
same,Bermudagrass plant response rating,"bermudagrass; Postemergence, scale 0 to 100",100
same,"Plant response rating, Bermudagrass",bermudagrass; [9],60
same,Bermudagrass plant response rating,bermudagrass; [10],100
same,"Plant response rating, Bermudagrass",bermudagrass; [11],60
same,"Plant response rating, Bermudagrass",bermudagrass; [12],10
same,"Crabgrass, Large plant response rating",large crabgrass [6]; [17],75
same,"Plant response rating, Crabgrass, Large",large crabgrass [6]; [18],80
same,"Crabgrass, Large plant response rating",large crabgrass [6]; [19],100
same,"Crabgrass, Large plant response rating",large crabgrass [6]; [20],100
same,"Plant response rating (0 = no effect, 100 = complete control), Crabgrass, Large","large crabgrass [7]; 62 g ai/ha, preemergence",100
same,"Plant response rating, Crabgrass, Large",large crabgrass [7]; [8],100
same,"Plant response rating, Crabgrass, Large",large crabgrass [7]; [21],100
same,"Crabgrass, Large plant response rating","large crabgrass [7]; Postemergence, scale 0 to 100",90
same,"Plant response rating, Crabgrass, Large",large crabgrass [7]; [9],70
same,"Crabgrass, Large plant response rating",large crabgrass [7]; [10],100
same,"Plant response rating, Crabgrass, Large",large crabgrass [7]; [11],70
same,"Plant response rating, Crabgrass, Large",large crabgrass [7]; [12],60
same,Rice plant response rating,rice; [13],55
same,Rice plant response rating,rice; [14],65
same,Rice plant response rating,rice; [15],75
same,"Plant response rating, Rice",rice; [16],75
